Reference: US7994140B2, “Classes of compounds that interact with GPCRs” (Alchemia Limited, priority 2002, dated 2011)

Key:
SST5 = biological target: T1, SST5 (Homo sapiens, UniProt P35346); test: GPCR radioligand binding (RLB) assay, somatostatin SST5, [125I]SST-14; conditions: 10 micromolar; Example Library 4
T1 construct: purchased Perkin Elmer BioSignal; host or cells: HEK 293
Summary of the method: (§1)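 Competition binding against radioligand ([125I]NDP-αMSH for MC4, [125I]SST-14 for SST5) on membranes of HEK 293 cells carrying the human receptor; buffer and incubation time optimized per receptor. Filtration through 0.5% PEI-treated glass fiber, washing, then scintillation counting.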

MC4 = biological target: T2, MC4 (Homo sapiens, UniProt P32245); test: GPCR radioligand binding (RLB) assay, melanocortin MC4, [125I]NDP-αMSH; conditions: 10 micromolar; Example Library 4
T2 construct: purchased Perkin Elmer BioSignal; host or cells: HEK 293
Summary of the method: as §1

T2 sequence (P32245 whole entry): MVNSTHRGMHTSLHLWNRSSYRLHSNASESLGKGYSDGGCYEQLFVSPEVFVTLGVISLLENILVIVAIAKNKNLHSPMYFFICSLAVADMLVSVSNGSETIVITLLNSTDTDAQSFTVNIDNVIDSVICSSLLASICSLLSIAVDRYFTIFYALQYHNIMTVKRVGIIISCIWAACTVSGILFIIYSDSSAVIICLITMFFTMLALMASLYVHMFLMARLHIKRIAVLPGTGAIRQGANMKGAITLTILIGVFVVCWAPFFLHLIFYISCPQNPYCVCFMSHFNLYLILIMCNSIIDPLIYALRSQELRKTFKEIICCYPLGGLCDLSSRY
T1 sequence (P35346 whole entry): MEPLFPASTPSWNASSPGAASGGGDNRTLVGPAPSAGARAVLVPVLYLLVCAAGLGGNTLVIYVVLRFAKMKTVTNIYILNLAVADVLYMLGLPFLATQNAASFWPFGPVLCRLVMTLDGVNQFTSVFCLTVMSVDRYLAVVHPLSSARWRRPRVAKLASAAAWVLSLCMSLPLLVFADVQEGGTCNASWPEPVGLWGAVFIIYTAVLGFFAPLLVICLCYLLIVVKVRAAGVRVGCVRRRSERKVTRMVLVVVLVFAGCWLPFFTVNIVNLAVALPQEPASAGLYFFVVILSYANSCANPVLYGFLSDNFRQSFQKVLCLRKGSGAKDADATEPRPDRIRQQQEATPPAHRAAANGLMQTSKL

| SMILES | SSTS inhibition at 10 micromolar (SST5) | MC4 inhibition at 10 micromolar (MC4) |
| --- | --- | --- |
| COCC1OC(OCc2ccccc2)C(NC(=O)CCCNC(=N)N)C(OCc2ccc3ccccc3c2)C1O (stereo not shown) [Compound 236] | + (Indicates inhibition greater than . . . 50%) | + (Indicates inhibition greater than . . . 50%) |
| COCC1OC(OCc2ccc(Cl)cc2)C(NC(=O)CNC(=N)N)C(OCc2ccccc2)C1O (stereo not shown) [Compound 237] | + (Indicates inhibition greater than . . . 50%) | + (Indicates inhibition greater than . . . 50%) |
| COCC1OC(OCc2ccc(Cl)cc2)C(NC(=O)CCNC(=N)N)C(OCc2ccccc2)C1O (stereo not shown) [Compound 239] | + (Indicates inhibition greater than . . . 50%) | + (Indicates inhibition greater than . . . 50%) |
| COCC1OC(OCc2ccc(Cl)cc2)C(NC(=O)CCCNC(=N)N)C(OCc2ccccc2)C1O (stereo not shown) [Compound 241] | + (Indicates inhibition greater than . . . 50%) | + (Indicates inhibition greater than . . . 50%) |
| COCC1OC(OCc2ccc(Cl)cc2)C(NC(=O)CN)C(OCc2ccc(Cl)cc2)C1O (stereo not shown) [Compound 242] | + (Indicates inhibition greater than . . . 50%) | + (Indicates inhibition greater than . . . 50%) |
| COCC1OC(OCc2ccc(Cl)cc2)C(NC(=O)CNC(=N)N)C(OCc2ccc(Cl)cc2)C1O (stereo not shown) [Compound 243] | + (Indicates inhibition greater than . . . 50%) | + (Indicates inhibition greater than . . . 50%) |
| COCC1OC(OCc2ccc(Cl)cc2)C(NC(=O)CCN)C(OCc2ccc(Cl)cc2)C1O (stereo not shown) [Compound 244] | + (Indicates inhibition greater than . . . 50%) | + (Indicates inhibition greater than . . . 50%) |
| COCC1OC(OCc2ccc(Cl)cc2)C(NC(=O)CCNC(=N)N)C(OCc2ccc(Cl)cc2)C1O (stereo not shown) [Compound 245] | + (Indicates inhibition greater than . . . 50%) | + (Indicates inhibition greater than . . . 50%) |
| COCC1OC(OCc2ccc(Cl)cc2)C(NC(=O)CCCN)C(OCc2ccc(Cl)cc2)C1O (stereo not shown) [Compound 246] | + (Indicates inhibition greater than . . . 50%) | + (Indicates inhibition greater than . . . 50%) |
| COCC1OC(OCc2ccc(Cl)cc2)C(NC(=O)CCCNC(=N)N)C(OCc2ccc(Cl)cc2)C1O (stereo not shown) [Compound 247] | + (Indicates inhibition greater than . . . 50%) | + (Indicates inhibition greater than . . . 50%) |
| COCC1OC(OCc2ccc(Cl)cc2)C(NC(=O)CN)C(OCc2ccc(-c3ccccc3)cc2)C1O (stereo not shown) [Compound 248] | + (Indicates inhibition greater than . . . 50%) | + (Indicates inhibition greater than . . . 50%) |
| COCC1OC(OCc2ccc(Cl)cc2)C(NC(=O)CNC(=N)N)C(OCc2ccc(-c3ccccc3)cc2)C1O (stereo not shown) [Compound 249] | + (Indicates inhibition greater than . . . 50%) | + (Indicates inhibition greater than . . . 50%) |
| COCC1OC(OCc2ccc(Cl)cc2)C(NC(=O)CCN)C(OCc2ccc(-c3ccccc3)cc2)C1O (stereo not shown) [Compound 250] | + (Indicates inhibition greater than . . . 50%) | + (Indicates inhibition greater than . . . 50%) |
| COCC1OC(OCc2ccc(Cl)cc2)C(NC(=O)CCNC(=N)N)C(OCc2ccc(-c3ccccc3)cc2)C1O (stereo not shown) [Compound 251] | + (Indicates inhibition greater than . . . 50%) | + (Indicates inhibition greater than . . . 50%) |
| COCC1OC(OCc2ccc(Cl)cc2)C(NC(=O)CCCN)C(OCc2ccc(-c3ccccc3)cc2)C1O (stereo not shown) [Compound 252] | + (Indicates inhibition greater than . . . 50%) | + (Indicates inhibition greater than . . . 50%) |
| COCC1OC(OCc2ccc(Cl)cc2)C(NC(=O)CCCNC(=N)N)C(OCc2ccc(-c3ccccc3)cc2)C1O (stereo not shown) [Compound 253] | + (Indicates inhibition greater than . . . 50%) | + (Indicates inhibition greater than . . . 50%) |
| COCC1OC(OCc2ccc(Cl)cc2)C(NC(=O)CN)C(OCc2ccc3ccccc3c2)C1O (stereo not shown) [Compound 254] | + (Indicates inhibition greater than . . . 50%) | + (Indicates inhibition greater than . . . 50%) |
| COCC1OC(OCc2ccc(Cl)cc2)C(NC(=O)CNC(=N)N)C(OCc2ccc3ccccc3c2)C1O (stereo not shown) [Compound 255] | + (Indicates inhibition greater than . . . 50%) | + (Indicates inhibition greater than . . . 50%) |
| COCC1OC(OCc2ccc(Cl)cc2)C(NC(=O)CCN)C(OCc2ccc3ccccc3c2)C1O (stereo not shown) [Compound 256] | + (Indicates inhibition greater than . . . 50%) | + (Indicates inhibition greater than . . . 50%) |

| SMILES | SSTS inhibition at 10 micromolar (SST5) | MC4 inhibition at 10 micromolar (MC4) |
| --- | --- | --- |
| COCC1OC(OCc2ccc(Cl)cc2)C(NC(=O)CCNC(=N)N)C(OCc2ccc3ccccc3c2)C1O (stereo not shown) [Compound 257] | + (Indicates inhibition greater than . . . 50%) | + (Indicates inhibition greater than . . . 50%) |
| COCC1OC(OCc2ccc(Cl)cc2)C(NC(=O)CCCN)C(OCc2ccc3ccccc3c2)C1O (stereo not shown) [Compound 258] | + (Indicates inhibition greater than . . . 50%) | + (Indicates inhibition greater than . . . 50%) |
| COCC1OC(OCc2ccc(Cl)cc2)C(NC(=O)CCCNC(=N)N)C(OCc2ccc3ccccc3c2)C1O (stereo not shown) [Compound 259] | + (Indicates inhibition greater than . . . 50%) | + (Indicates inhibition greater than . . . 50%) |
| COCC1OC(OCCc2ccccc2)C(NC(=O)CCNC(=N)N)C(OCc2ccccc2)C1O (stereo not shown) [Compound 263] | + (Indicates inhibition greater than . . . 50%) | + (Indicates inhibition greater than . . . 50%) |
| COCC1OC(OCCc2ccccc2)C(NC(=O)CCCNC(=N)N)C(OCc2ccccc2)C1O (stereo not shown) [Compound 265] | + (Indicates inhibition greater than . . . 50%) | + (Indicates inhibition greater than . . . 50%) |
| COCC1OC(OCCc2ccccc2)C(NC(=O)CNC(=N)N)C(OCc2ccc(Cl)cc2)C1O (stereo not shown) [Compound 267] | + (Indicates inhibition greater than . . . 50%) | + (Indicates inhibition greater than . . . 50%) |
| COCC1OC(OCCc2ccccc2)C(NC(=O)CCN)C(OCc2ccc(Cl)cc2)C1O (stereo not shown) [Compound 268] | + (Indicates inhibition greater than . . . 50%) | + (Indicates inhibition greater than . . . 50%) |
| COCC1OC(OCCc2ccccc2)C(NC(=O)CCNC(=N)N)C(OCc2ccc(Cl)cc2)C1O (stereo not shown) [Compound 269] | + (Indicates inhibition greater than . . . 50%) | + (Indicates inhibition greater than . . . 50%) |
| COCC1OC(OCCc2ccccc2)C(NC(=O)CCCN)C(OCc2ccc(Cl)cc2)C1O (stereo not shown) [Compound 270] | + (Indicates inhibition greater than . . . 50%) | + (Indicates inhibition greater than . . . 50%) |
| COCC1OC(OCCc2ccccc2)C(NC(=O)CCCNC(=N)N)C(OCc2ccc(Cl)cc2)C1O (stereo not shown) [Compound 271] | + (Indicates inhibition greater than . . . 50%) | + (Indicates inhibition greater than . . . 50%) |
| COCC1OC(OCCc2ccccc2)C(NC(=O)CN)C(OCc2ccc(-c3ccccc3)cc2)C1O (stereo not shown) [Compound 272] | + (Indicates inhibition greater than . . . 50%) | + (Indicates inhibition greater than . . . 50%) |
| COCC1OC(OCCc2ccccc2)C(NC(=O)CNC(=N)N)C(OCc2ccc(-c3ccccc3)cc2)C1O (stereo not shown) [Compound 273] | + (Indicates inhibition greater than . . . 50%) | + (Indicates inhibition greater than . . . 50%) |
| COCC1OC(OCCc2ccccc2)C(NC(=O)CN)C(OCc2ccc(-c3ccccc3)cc2)C1O (stereo not shown) [Compound 274] | + (Indicates inhibition greater than . . . 50%) | + (Indicates inhibition greater than . . . 50%) |
| COCC1OC(OCCc2ccccc2)C(NC(=O)CCNC(=N)N)C(OCc2ccc(-c3ccccc3)cc2)C1O (stereo not shown) [Compound 275] | + (Indicates inhibition greater than . . . 50%) | + (Indicates inhibition greater than . . . 50%) |
| COCC1OC(OCCc2ccccc2)C(NC(=O)CCCN)C(OCc2ccc(-c3ccccc3)cc2)C1O (stereo not shown) [Compound 276] | + (Indicates inhibition greater than . . . 50%) | + (Indicates inhibition greater than . . . 50%) |
| COCC1OC(OCCc2ccccc2)C(NC(=O)CCCNC(=N)N)C(OCc2ccc(-c3ccccc3)cc2)C1O (stereo not shown) [Compound 277] | + (Indicates inhibition greater than . . . 50%) | + (Indicates inhibition greater than . . . 50%) |
| COCC1OC(OCCc2ccccc2)C(NC(=O)CN)C(OCc2ccc3ccccc3c2)C1O (stereo not shown) [Compound 278] | + (Indicates inhibition greater than . . . 50%) | + (Indicates inhibition greater than . . . 50%) |
| COCC1OC(OCCc2ccccc2)C(NC(=O)CNC(=N)N)C(OCc2ccc3ccccc3c2)C1O (stereo not shown) [Compound 279] | + (Indicates inhibition greater than . . . 50%) | + (Indicates inhibition greater than . . . 50%) |
| COCC1OC(OCCc2ccccc2)C(NC(=O)CN)C(OCc2ccc3ccccc3c2)C1O (stereo not shown) [Compound 280] | + (Indicates inhibition greater than . . . 50%) | + (Indicates inhibition greater than . . . 50%) |
